Results: ChEMBL document CHEMBL1123640, “Synthesis and antiviral activity of carbocyclic analogues of xylofuranosides of 2-amino-6-substituted-purines and 2-amino-6-substituted-8-azapurines” (1987)
In brackets after ≈: the same amount, converted by molar mass.

Assays:
P388 = assay: Tested for inhibitory activity against P-388 leukemia cells; assay type: functional; details: Mus musculus, read-out: ED50 (the source's name)
Human alphaherpesvirus 1 [1] = assay: Minimum inhibitory concentration required to inhibit Herpes simplex virus type 1 (strain 377) induced cytopathogenic effects by 50%. (experiment 2); assay type: functional
Human alphaherpesvirus 1 [2] = assay: The compound was tested in vitro for definite and significant anti viral activity against Herpes simplex virus type 1 (strain 377) (experiment 1); value indicates definite and significant antiviral activity; assay type: functional
Human alphaherpesvirus 2 [3] = assay: The compound was tested in vitro for definite and significant anti viral activity against Herpes simplex virus type 2 (strain MS) (experiment 2); value indicates definite and significant antiviral activity; assay type: functional
Human alphaherpesvirus 2 [4] = assay: Minimum inhibitory concentration required to inhibit Herpes simplex virus type 2 (strain MS) induced cytopathogenic effects by 50%. (experiment 1); assay type: functional; details: Human alphaherpesvirus 2, MS
Human alphaherpesvirus 1 [5] = assay: Minimum inhibitory concentration required to inhibit Herpes simplex virus type 1 (strain 377) induced cytopathogenic effects by 50%. (experiment 1); assay type: functional
Human alphaherpesvirus 1 [6] = assay: The compound was tested in vitro for definite and significant anti viral activity against Herpes simplex virus type 1 (strain 377) (experiment 2); value indicates definite and significant antiviral activity; assay type: functional
Human alphaherpesvirus 2 [7] = assay: The compound was tested in vitro for definite and significant anti viral activity against Herpes simplex virus type 2 (strain MS) (experiment 1); value indicates definite and significant antiviral activity; assay type: functional
Human alphaherpesvirus 2 [8] = assay: Minimum inhibitory concentration required to inhibit Herpes simplex virus type 2 (strain MS) induced cytopathogenic effects by 50%. (experiment 2); assay type: functional; details: Human alphaherpesvirus 2, MS
Human alphaherpesvirus 1 [9] = assay: The compound was tested in vitro for anti viral activity against Herpes simplex virus type 1 (strain 377) (experiment 1); value indicates definite and significant antiviral activity; assay type: functional
Homo sapiens [10] = species: Homo sapiens; assay: Antiviral activity against Varicella-Zoster virus (VV) in human foreskin cell cultures in virus plaque reduction assay at 3.2uM; assay type: functional
MRC5 [11] = assay: Replication of human cytomegalovirus strain […] virus yield reduction assay in human diploid embryonic lung cells (MRC5) at 10 uM; assay type: functional
MRC5 [12] = assay: Replication of human cytomegalovirus strain […] virus yield expressed as plaque forming units/mL at 100 uM; assay type: functional
Homo sapiens [13] = species: Homo sapiens; assay: Antiviral activity against Varicella-Zoster virus (VV) in human foreskin cell cultures in virus plaque reduction assay at 100 uM; assay type: functional
MRC5 [14] = assay: Percent reduction of CPE (plaques) at the time of harvest at 320 uM; assay type: functional, Homo sapiens
MRC5 [15] = assay: (§1) Cytotoxicity was determined at 100 uM; assay type: functional, Homo sapiens
Human alphaherpesvirus 2 [16] = assay: Minimum inhibitory concentration required to inhibit Herpes simplex virus type 2 (strain MS) induced cytopathogenic effects by 50%. (experiment 1)
Human alphaherpesvirus 2 [17] = assay: The compound was tested in vitro for anti viral activity against Herpes simplex virus type 2 (strain MS) (experiment 2); value indicates definite and significant antiviral activity
MRC5 [18] = assay: Cytotoxicity (gross morphology) was evaluated at 3.2uM; assay type: functional, Homo sapiens
MRC5 [19] = assay: Replication of human cytomegalovirus strain […] virus yield reduction assay in human diploid embryonic lung cells (MRC5) at 3.2 uM; assay type: functional
MRC5 [20] = assay: Replication of human cytomegalovirus strain […] virus yield expressed as plaque forming units/mL at 10 uM; assay type: functional
MRC5 [21] = assay: Percent reduction of CPE (plaques) at the time of harvest at 10 uM; assay type: functional, Homo sapiens
MRC5 [22] = assay: Replication of human cytomegalovirus strain […] virus yield expressed as plaque forming units/mL at 1000 uM (308 ug/mL); assay type: functional
MRC5 [23] = assay: Replication of human cytomegalovirus strain […] virus yield reduction assay in human diploid embryonic lung cells (MRC5) at 100 uM; assay type: functional
MRC5 [24] = assay: (§2) Cytotoxicity was determined at 320 uM; assay type: functional, Homo sapiens
MRC5 [25] = assay: (§3) Cytotoxicity was determined at 32 uM; assay type: functional, Homo sapiens
MRC5 [26] = assay: Replication of human cytomegalovirus strain […] virus yield expressed as plaque forming units/mL at 3.2 uM; assay type: functional
Homo sapiens [27] = species: Homo sapiens; assay: Antiviral activity against Varicella-Zoster virus (VV) in human foreskin cell cultures in virus plaque reduction assay at 1000 uM; assay type: functional
MRC5 [28] = assay: Replication of human cytomegalovirus strain […] virus yield expressed as plaque forming units/mL at 32 uM; assay type: functional
MRC5 [29] = assay: Percent reduction of CPE (plaques) at the time of harvest at 1000 uM (308 ug/mL); assay type: functional, Homo sapiens
Human alphaherpesvirus 1 [30] = assay: The compound was tested in vitro for anti viral activity against Herpes simplex virus type 1 (strain 377) (experiment 2); value indicates definite and significant antiviral activity; assay type: functional
MRC5 [31] = assay: Replication of human cytomegalovirus strain […] virus yield expressed as plaque forming units/mL at 1 uM; assay type: functional
Homo sapiens [32] = species: Homo sapiens; assay: Antiviral activity against Varicella-Zoster virus (VV) in human foreskin cell cultures in virus plaque reduction assay at 10 uM; assay type: functional
Human alphaherpesvirus 2 [33] = assay: Minimum inhibitory concentration required to inhibit Herpes simplex virus type 2 (strain MS) induced cytopathogenic effects by 50%. (experiment 2)
Human alphaherpesvirus 2 [34] = assay: The compound was tested in vitro for anti viral activity against Herpes simplex virus type 2 (strain MS) (experiment 1); value indicates definite and significant antiviral activity
MRC5 [35] = assay: Replication of human cytomegalovirus strain […] virus yield reduction assay in human diploid embryonic lung cells (MRC5) at 1 uM; assay type: functional
MRC5 [36] = assay: Cytotoxicity (gross morphology) was evaluated at 32 uM; assay type: functional, Homo sapiens
MRC5 [37] = assay: Cytotoxicity (gross morphology) was evaluated at 10 uM; assay type: functional, Homo sapiens
MRC5 [38] = assay: Replication of human cytomegalovirus strain […] virus yield reduction assay in human diploid embryonic lung cells (MRC5) at 1000 uM (308 ug/mL); assay type: functional
MRC5 [39] = assay: Cytotoxicity (gross morphology) was evaluated at 1 uM; assay type: functional, Homo sapiens
Homo sapiens [40] = species: Homo sapiens; assay: Antiviral activity against Varicella-Zoster virus (VV) in human foreskin cell cultures in virus plaque reduction assay at 1 uM; assay type: functional
Homo sapiens [41] = species: Homo sapiens; assay: Antiviral activity against Varicella-Zoster virus (VV) in human foreskin cell cultures in virus plaque reduction assay at 320 uM; assay type: functional
Homo sapiens [42] = species: Homo sapiens; assay: Antiviral activity against Varicella-Zoster virus (VV) in human foreskin cell cultures in virus plaque reduction assay at 32 uM; assay type: functional
MRC5 [43] = assay: Percent reduction of CPE (plaques) at the time of harvest at 32 uM; assay type: functional, Homo sapiens
MRC5 [44] = assay: Cytotoxicity (gross morphology) was evaluated at 100 uM; assay type: functional, Homo sapiens
MRC5 [45] = assay: Percent reduction of CPE (plaques) at the time of harvest at 1 uM; assay type: functional, Homo sapiens
MRC5 [46] = assay: Replication of human cytomegalovirus strain […] virus yield reduction assay in human diploid embryonic lung cells (MRC5) at 32 uM; assay type: functional
MRC5 [47] = assay: Replication of human cytomegalovirus strain […] virus yield expressed as plaque forming units/mL at 320 uM; assay type: functional
MRC5 [48] = assay: Percent reduction of CPE (plaques) at the time of harvest at 100 uM; assay type: functional, Homo sapiens
MRC5 [49] = assay: Percent reduction of CPE (plaques) at the time of harvest at 3.2 uM; assay type: functional, Homo sapiens
MRC5 [50] = assay: Replication of human cytomegalovirus strain […] virus yield reduction assay in human diploid embryonic lung cells (MRC5) at 320 uM; assay type: functional
Homo sapiens [51] = species: Homo sapiens; assay: as §1; assay type: functional
Homo sapiens [52] = species: Homo sapiens; assay: Cytotoxicity was determined at 1000 uM; assay type: functional
Homo sapiens [53] = species: Homo sapiens; assay: as §2; assay type: functional
Homo sapiens [54] = species: Homo sapiens; assay: as §3; assay type: functional
Homo sapiens [55] = species: Homo sapiens; assay: Antiviral activity against Varicella-Zoster virus (VV) in human foreskin cell cultures in virus plaque reduction assay at 3.2 uM; assay type: functional
Human alphaherpesvirus 1 [56] = assay: The compound was tested in vitro for anti viral activity against Herpes simplex virus type 1 (strain 377); assay type: functional
Human alphaherpesvirus 1 [57] = assay: Minimum inhibitory concentration required to inhibit Herpes simplex virus type 1 (strain 377) induced cytopathogenic effects by 50%.; assay type: functional
Human alphaherpesvirus 2 [58] = assay: Minimum inhibitory concentration required to inhibit Herpes simplex virus type 2 (strain MS) induced cytopathogenic effects by 50%.; assay type: functional
Human alphaherpesvirus 2 [59] = assay: The compound was tested in vitro for anti viral activity against Herpes simplex virus type 2 (strain MS); assay type: functional

`Nc1nc(O)c2nnn(C3CC(CO)C(O)C3O)c2n1` (stereo unspecified) gave an EC50 (P388) of 1.6 µM, an MIC50 (Human alphaherpesvirus 1 [1]) of 93.1 µg/mL (≈ 330 µM) and a Virus rating (Human alphaherpesvirus 1 [2]) of 2.4. It also gave a Virus rating (Human alphaherpesvirus 2 [3]) of 1.1, an MIC50 (Human alphaherpesvirus 2 [4]) of 92.2 µg/mL (≈ 327 µM) and an MIC50 (Human alphaherpesvirus 1 [5]) of 60.8 µg/mL (≈ 215 µM). It also gave a Virus rating (Human alphaherpesvirus 1 [6]) of 2.5, a Virus rating (Human alphaherpesvirus 2 [7]) of 1.3 and an MIC50 (Human alphaherpesvirus 2 [8]) of 240 µg/mL (≈ 852 µM).

In the case of `Nc1nc(O)c2ncn(C3CC(CO)C(O)C3O)c2n1` (stereo unspecified), the Virus rating (Human alphaherpesvirus 1 [9]) is reported as 5.7, the EC50 (P388) is reported as 8.9 µM and the MIC50 (Human alphaherpesvirus 1 [1]) is reported as 3 µg/mL (≈ 10.7 µM). It also gave a Reduction (Homo sapiens [10]) of 18%, a Virus yield reduction (MRC5 [11]) of 0.2 and a CMV yield (MRC5 [12]) of 100 pfu/ml. The Reduction (Homo sapiens [13]) was 100%, the Reduction (MRC5 [14]) was 100% and the Cytotoxicity (MRC5 [15]) was 0. It also gave an MIC50 (Human alphaherpesvirus 2 [16]) of 22.8 µg/mL (≈ 81.1 µM), a Virus rating (Human alphaherpesvirus 2 [17]) of 3.9 and a Cytotoxicity (MRC5 [18]) of 0. For the same compound, the Virus yield reduction (MRC5 [19]) was 0.2, the CMV yield (MRC5 [20]) was 96000 pfu/ml and the Reduction (MRC5 [21]) was 0%. For the same compound, the CMV yield (MRC5 [22]) was 0 pfu/ml, the Virus yield reduction (MRC5 [23]) was 3.2 and the Cytotoxicity (MRC5 [24]) was 0. It also gave a Cytotoxicity (MRC5 [25]) of 0, a CMV yield (MRC5 [26]) of 108000 pfu/ml and a Reduction (Homo sapiens [27]) of 100%. It also gave a CMV yield (MRC5 [28]) of 12800 pfu/ml, a Reduction (MRC5 [29]) of 100% and a Virus rating (Human alphaherpesvirus 1 [30]) of 5.6. It also gave a CMV yield (MRC5 [31]) of 96000 pfu/ml, a Reduction (Homo sapiens [32]) of 26% and an MIC50 (Human alphaherpesvirus 2 [33]) of 23.5 µg/mL (≈ 83.5 µM). For the same compound, the Virus rating (Human alphaherpesvirus 2 [34]) was 2.6, the Virus yield reduction (MRC5 [35]) was 0.2 and the Cytotoxicity (MRC5 [36]) was 0. For the same compound, the Cytotoxicity (MRC5 [37]) was 0, the Virus yield reduction (MRC5 [38]) was 5.2 and the MIC50 (Human alphaherpesvirus 1 [5]) was 1.8 µg/mL (≈ 6.4 µM). For the same compound, the Cytotoxicity (MRC5 [39]) was 0, the Reduction (Homo sapiens [40]) was 18% and the Reduction (Homo sapiens [41]) was 100%. For the same compound, the Reduction (Homo sapiens [42]) was 79%, the Reduction (MRC5 [43]) was 25% and the Cytotoxicity (MRC5 [44]) was 0. The Reduction (MRC5 [45]) was 0%, the Virus yield reduction (MRC5 [46]) was 1.1 and the CMV yield (MRC5 [47]) was 0 pfu/ml. For the same compound, the Reduction (MRC5 [48]) was 80%, the Reduction (MRC5 [49]) was 0% and the Virus yield reduction (MRC5 [50]) was 5.2.

`Nc1nc2c(ncn2COCCO)c(=O)[nH]1` [ACYCLOVIR] showed a Cytotoxicity (Homo sapiens [51]) of 0, a Reduction (Homo sapiens [13]) of 94% and a Cytotoxicity (Homo sapiens [52]) of 0. For the same compound, the Cytotoxicity (Homo sapiens [53]) was 0, the Reduction (Homo sapiens [27]) was 100% and the Reduction (Homo sapiens [32]) was 41%. The Cytotoxicity (Homo sapiens [54]) was 0, the Reduction (Homo sapiens [40]) was 35% and the Reduction (Homo sapiens [41]) was 100%. It also gave a Reduction (Homo sapiens [42]) of 79% and a Reduction (Homo sapiens [55]) of 32%.

For `Nc1nc2c(ncn2COC(CO)CO)c(=O)[nH]1` [GANCICLOVIR], the Cytotoxicity (Homo sapiens [51]) was 0, the Reduction (Homo sapiens [13]) was 82% and the Reduction (Homo sapiens [52]) was 0. For the same compound, the Cytotoxicity (Homo sapiens [53]) was 0, the Reduction (Homo sapiens [27]) was 97% and the Reduction (Homo sapiens [32]) was 35%. For the same compound, the Cytotoxicity (Homo sapiens [54]) was 0, the Reduction (Homo sapiens [41]) was 97% and the Reduction (Homo sapiens [42]) was 56%. The Reduction (Homo sapiens [55]) was 24%.

In the case of `Nc1ncnc2c1ncn2[C@@H]1O[C@H](CO)[C@@H](O)[C@@H]1O` [VIDARABINE], the Cytotoxicity (Homo sapiens [51]) is reported as 0, the Reduction (Homo sapiens [13]) is reported as 97% and the Virus rating (Human alphaherpesvirus 1 [56]) is reported as 3.1. It also gave an MIC50 (Human alphaherpesvirus 1 [57]) of 9.8 µg/mL (≈ 36.7 µM), a Reduction (Homo sapiens [32]) of 44% and an MIC50 (Human alphaherpesvirus 2 [58]) of 30 µg/mL (≈ 112 µM). The Cytotoxicity (Homo sapiens [54]) was 0, the Virus rating (Human alphaherpesvirus 2 [59]) was 2.3 and the Reduction (Homo sapiens [41]) was 100%. It also gave a Reduction (Homo sapiens [42]) of 97% and a Reduction (Homo sapiens [55]) of 18%.
